From the supplement of paper PMC10307832

How the values were obtained:
Experiment in all cases: relative viability (nuclei count vs DMSO), 5 days (fraction); higher = more cells survive
Bosutinib + Bortezomib = compound: COc1cc(Nc2c(C#N)cnc3cc(OCCCN4CCN(C)CC4)c(OC)cc23)c(Cl)cc1Cl [Bosutinib] + CC(C)C[C@H](NC(=O)[C@H](Cc1ccccc1)NC(=O)c1cnccn1)B(O)O [Bortezomib] (partner 0.002 µM)
Summary of the method: (§1)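 The day after seeding in 1536-well plates, lung cancer cell lines were treated by pin tool with a single drug, or with a fixed anchor-drug dose together with five library-drug doses (not always all listed) in √10 steps. After 5 days, a combined fix-and-stain solution (final 0.05% Triton X-100, 1% formaldehyde, 1 ug/ml Hoechst) was added. Nuclei counted on 4× images gave relative viability as treated counts over vehicle counts, reported as the median of duplicate plates.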

Bosutinib + Navitoclax = compound: COc1cc(Nc2c(C#N)cnc3cc(OCCCN4CCN(C)CC4)c(OC)cc23)c(Cl)cc1Cl [Bosutinib] + CC1(C)CCC(c2ccc(Cl)cc2)=C(CN2CCN(c3ccc(C(=O)NS(=O)(=O)c4ccc(N[C@H](CCN5CCOCC5)CSc5ccccc5)c(S(=O)(=O)C(F)(F)F)c4)cc3)CC2)C1 [Navitoclax] (partner 0.5 µM)
Summary of the method: as §1

Bosutinib + OSI-027 = compound: COc1cc(Nc2c(C#N)cnc3cc(OCCCN4CCN(C)CC4)c(OC)cc23)c(Cl)cc1Cl [Bosutinib] + COc1cccc2cc(-c3nc([C@H]4CC[C@H](C(=O)O)CC4)n4ncnc(N)c34)[nH]c12 [OSI-027] (partner 0.5 µM)
Summary of the method: as §1

Bosutinib + Lapatinib = compound: COc1cc(Nc2c(C#N)cnc3cc(OCCCN4CCN(C)CC4)c(OC)cc23)c(Cl)cc1Cl [Bosutinib] + CS(=O)(=O)CCNCc1ccc(-c2ccc3ncnc(Nc4ccc(OCc5cccc(F)c5)c(Cl)c4)c3c2)o1 [Lapatinib] (partner 2 µM)
Summary of the method: as §1

Bosutinib + Pictilisib = compound: COc1cc(Nc2c(C#N)cnc3cc(OCCCN4CCN(C)CC4)c(OC)cc23)c(Cl)cc1Cl [Bosutinib] + CS(=O)(=O)N1CCN(Cc2cc3nc(-c4cccc5[nH]ncc45)nc(N4CCOCC4)c3s2)CC1 [Pictilisib] (partner 1 µM)
Summary of the method: as §1

Row | Cell Line | relative viability (Bosutinib + Bortezomib; first compound 0.01 µM) | relative viability (Bosutinib + Bortezomib; first compound 0.03162 µM) | relative viability (Bosutinib + Bortezomib; first compound 0.1 µM) | relative viability (Bosutinib + Bortezomib; first compound 1 µM) | relative viability (Bosutinib + Navitoclax; first compound 0.01 µM) | relative viability (Bosutinib + Navitoclax; first compound 0.03162 µM) | relative viability (Bosutinib + Navitoclax; first compound 0.1 µM) | relative viability (Bosutinib + Navitoclax; first compound 1 µM) | relative viability (Bosutinib + OSI-027; first compound 0.01 µM) | relative viability (Bosutinib + OSI-027; first compound 0.03162 µM) | relative viability (Bosutinib + OSI-027; first compound 0.1 µM) | relative viability (Bosutinib + OSI-027; first compound 1 µM) | relative viability (Bosutinib + Lapatinib; first compound 0.01 µM) | relative viability (Bosutinib + Lapatinib; first compound 0.03162 µM) | relative viability (Bosutinib + Lapatinib; first compound 0.1 µM) | relative viability (Bosutinib + Lapatinib; first compound 1 µM) | relative viability (Bosutinib + Pictilisib; first compound 0.01 µM) | relative viability (Bosutinib + Pictilisib; first compound 0.03162 µM) | relative viability (Bosutinib + Pictilisib; first compound 0.1 µM) | relative viability (Bosutinib + Pictilisib; first compound 1 µM)
1 | HCC-44 | 0.873 | 0.891 | 0.867 | 0.567 | 1.03 | 0.926 | 0.969 | 0.849 | 0.525 | 0.673 | 0.594 | 0.571 | 1.03 | 0.96 | 0.982 | 1.07 | 0.723 | 0.548 | 0.587 | 0.632
2 | NCI-H1915 | 0.942 | 0.932 | 1.02 | 1.01 | 0.802 | 0.824 | 0.823 | 0.81 | 0.646 | 0.671 | 0.71 | 0.669 | 0.919 | 0.965 | 0.991 | 1.06 | 1.04 | 0.988 | 1.02 | 0.968
3 | PC-14 | 0.871 | 0.922 | 0.808 | 0.276 | 0.967 | 0.975 | 1.02 | 0.474 | 0.961 | 0.688 | 0.773 | 0.192 | 0.35 | 0.309 | 0.298 | 0.227 | 0.61 | 0.588 | 0.449 | 0.125
4 | SK-LU-1 | 1.15 | 1.21 | 1.04 | 0.922 | 0.714 | 0.929 | 0.779 | 0.739 | 0.335 | 0.362 | 0.331 | 0.222 | 0.808 | 0.919 | 1 | 0.586 | 0.574 | 0.685 | 0.517 | 0.545
5 | NCI-H1437 | 0.599 | 0.485 | 0.464 | 0.436 | 1.13 | 1.11 | 1.01 | 0.918 | 0.887 | 0.878 | 0.938 | 0.886 | 0.89 | 0.798 | 0.784 | 0.702 | 0.465 | 0.395 | 0.54 | 0.483
6 | NCI-H1734 | 0.948 | 0.951 | 0.827 | 0.879 | 0.808 | 0.827 | 0.853 | 0.737 | 0.584 | 0.609 | 0.684 | 0.538 | 1.17 | 1.07 | 0.977 | 1.06 | 0.507 | 0.427 | 0.447 | 0.447
7 | HCC-15 | 1.05 | 1.06 | 1.08 | 0.915 | 0.707 | 0.715 | 0.741 | 0.689 | 0.736 | 0.622 | 0.648 | 0.734 | 0.901 | 0.858 | 0.829 | 0.812 | 0.799 | 0.829 | 0.725 | 0.773
8 | HCC-366 | 1.11 | 1.01 | 1.06 | 0.989 | 1.08 | 1.05 | 0.997 | 0.49 | 0.981 | 0.898 | 0.821 | 0.405 | 1.16 | 0.942 | 0.939 | 0.884 | 0.154 | 0.144 | 0.181 | 0.121
9 | NCI-H2347 | 1.12 | 1.3 | 1.09 | 0.923 | 0.797 | 0.793 | 0.752 | 0.781 | 0.347 | 0.436 | 0.436 | 0.385 | 0.923 | 1.05 | 0.911 | 0.989 | 0.648 | 0.575 | 0.697 | 0.383
10 | LXF-289 | 1 | 1.03 | 1.02 | 0.991 | 0.938 | 0.945 | 0.911 | 0.966 | 0.765 | 0.849 | 0.823 | 0.898 | 0.881 | 0.912 | 0.913 | 0.929 | 0.815 | 0.865 | 0.818 | 0.778
11 | BEN | 0.726 | 0.986 | 0.923 | 0.765 | 0.0464 | 0.0561 | 0.0932 | 0.0522 | 0.318 | 0.313 | 0.294 | 0.261 | 0.619 | 0.699 | 0.785 | 0.52 | 0.548 | 0.706 | 0.664 | 0.429
12 | NCI-H2023 | 0.945 | 1.01 | 1.06 | 0.813 | 1 | 1.01 | 1.03 | 0.92 | 0.477 | 0.429 | 0.377 | 0.362 | 0.967 | 0.819 | 0.787 | 0.793 | 0.25 | 0.235 | 0.272 | 0.233
13 | NCI-H1355 | 1.27 | 1.24 | 1.3 | 1.21 | 0.996 | 0.925 | 0.96 | 0.814 | 0.412 | 0.466 | 0.465 | 0.381 | 1.01 | 1.04 | 1.09 | 0.957 | 0.465 | 0.545 | 0.572 | 0.412
